Measured values from ChEMBL document CHEMBL4334438, “Discovery of novel glycogen synthase kinase-3α inhibitors: Structure-based virtual screening, preliminary SAR and biological evaluation for treatment of acute myeloid leukemia” (Eur J Med Chem, 2019).

Tests used:
[1] = biological target: Serine/threonine-protein kinase PAK 5 (Homo sapiens) (UniProt Q9P286); experiment: Inhibition of recombinant human PAK5 (425 to end residues) assessed as residual activity at 1 uM using RRRLSFAEPG as substrate measured after 40 mins in presence of [gamma33P]ATP by scintillation counting method relative to control
[2] = biological target: Dual specificity mitogen-activated protein kinase kinase 6 (Homo sapiens) (UniProt P52564); experiment: Inhibition of recombinant human MKK6 (4 to end residues) assessed as residual activity at 1 uM using unactive SAPK2a as substrate measured after 40 mins in presence of [gamma33P]ATP by scintillation counting method
Sequence of Dual specificity mitogen-activated protein kinase kinase 6 (Homo sapiens) (P52564 whole entry): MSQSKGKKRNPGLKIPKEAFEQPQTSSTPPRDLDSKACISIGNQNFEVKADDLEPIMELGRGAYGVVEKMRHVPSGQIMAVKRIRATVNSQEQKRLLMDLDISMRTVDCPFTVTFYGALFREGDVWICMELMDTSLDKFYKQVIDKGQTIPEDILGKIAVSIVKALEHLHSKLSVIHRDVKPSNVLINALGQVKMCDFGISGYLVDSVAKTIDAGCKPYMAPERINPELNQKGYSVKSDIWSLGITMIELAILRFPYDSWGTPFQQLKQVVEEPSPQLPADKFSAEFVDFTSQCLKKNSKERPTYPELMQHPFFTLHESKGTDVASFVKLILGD

[3] = tested on: Epidermal growth factor receptor (Homo sapiens), P00533 [L858R]; experiment: Inhibition of recombinant human EGFR L858R mutant (696 to end residues) assessed as residual activity at 1 uM using poly(Glu, Tyr) 4:1 as substrate at 40 mins in presence of [gamma-33ATP] by scintillation counting based radiometry assay relative to control
[4] = biological target: Phosphatidylinositol 5-phosphate 4-kinase type-2 alpha (Homo sapiens) (UniProt P48426); experiment: Inhibition of recombinant full-length human PIP4K2alpha at 1 uM assessed as residual activity at 1 uM using phosphatidylinositol 5-phosphate as substrate measured after 40 mins by HTRF assay
[5] = biological target: Dual specificity mitogen-activated protein kinase kinase 2 (Homo sapiens) (UniProt P36507); experiment: Inhibition of recombinant human MEK2 assessed as residual activity at 1 uM using MBP as substrate incubated for 40 mins in presence of [gamma-33ATP by scintillation counting based radiometry assay relative to control
Sequence of Dual specificity mitogen-activated protein kinase kinase 2 (Homo sapiens) (P36507 whole entry, the tested form may be a part): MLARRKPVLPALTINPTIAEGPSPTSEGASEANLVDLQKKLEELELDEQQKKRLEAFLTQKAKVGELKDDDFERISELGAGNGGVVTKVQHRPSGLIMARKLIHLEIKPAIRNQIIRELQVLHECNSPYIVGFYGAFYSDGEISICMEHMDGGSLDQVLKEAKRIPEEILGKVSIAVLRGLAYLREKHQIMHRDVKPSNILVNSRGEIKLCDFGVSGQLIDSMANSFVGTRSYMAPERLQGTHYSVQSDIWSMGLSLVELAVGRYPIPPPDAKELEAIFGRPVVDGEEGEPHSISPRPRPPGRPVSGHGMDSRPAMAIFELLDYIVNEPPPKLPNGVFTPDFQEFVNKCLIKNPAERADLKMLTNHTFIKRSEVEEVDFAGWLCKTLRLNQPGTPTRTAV

[6] = biological target: Mitogen-activated protein kinase kinase kinase kinase 1 (Homo sapiens) (UniProt Q92918); experiment: Inhibition of human HPK1 (1 to 346 residues) assessed as residual activity at 1 uM using myelin basic protein as substrate after 40 mins by [gamma-33ATP] radiometric assay relative to control
Sequence of Mitogen-activated protein kinase kinase kinase kinase 1 (Homo sapiens) (Q92918 whole entry, looked up, the tested form may be a part): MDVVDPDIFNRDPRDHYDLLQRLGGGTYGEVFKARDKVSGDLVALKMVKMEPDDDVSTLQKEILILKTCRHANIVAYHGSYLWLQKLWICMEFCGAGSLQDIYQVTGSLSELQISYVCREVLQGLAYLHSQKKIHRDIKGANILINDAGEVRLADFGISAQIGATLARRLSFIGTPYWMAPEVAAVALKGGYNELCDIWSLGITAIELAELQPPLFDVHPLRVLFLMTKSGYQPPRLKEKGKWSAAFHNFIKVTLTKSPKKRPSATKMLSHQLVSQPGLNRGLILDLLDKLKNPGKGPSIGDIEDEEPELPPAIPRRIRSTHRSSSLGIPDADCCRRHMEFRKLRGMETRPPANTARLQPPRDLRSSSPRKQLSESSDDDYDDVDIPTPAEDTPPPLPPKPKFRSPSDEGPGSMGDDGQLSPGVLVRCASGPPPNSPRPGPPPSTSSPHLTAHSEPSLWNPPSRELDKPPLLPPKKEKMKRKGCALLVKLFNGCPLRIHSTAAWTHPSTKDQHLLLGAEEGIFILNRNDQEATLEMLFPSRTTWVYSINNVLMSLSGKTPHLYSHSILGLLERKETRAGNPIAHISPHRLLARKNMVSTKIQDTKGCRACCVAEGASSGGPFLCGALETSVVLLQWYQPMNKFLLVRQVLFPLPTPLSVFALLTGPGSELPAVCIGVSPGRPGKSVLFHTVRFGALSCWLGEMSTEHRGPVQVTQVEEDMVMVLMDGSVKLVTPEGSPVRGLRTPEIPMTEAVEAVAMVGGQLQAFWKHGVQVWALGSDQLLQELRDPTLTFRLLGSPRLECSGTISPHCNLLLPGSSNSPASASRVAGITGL

[7] = biological target: Tau-tubulin kinase 2 (Homo sapiens) (UniProt Q6IQ55); experiment: Inhibition of human TTBK2 (1 to 331 residues) assessed as residual activity at 1 uM using Casein as substrate measured after 40 mins in presence of [gamma33P]ATP by scintillation counting method relative to control
[8] = biological target: 3-phosphoinositide-dependent protein kinase 1 (Homo sapiens) (UniProt O15530); experiment: Inhibition of recombinant human PDK1 (52 to end residues) assessed as residual activity at 1 uM using PDKtide as substrate measured after 40 mins in presence of [gamma33P]ATP by scintillation counting method relative to control
[9] = biological target: BDNF/NT-3 growth factors receptor (Homo sapiens) (UniProt Q16620); experiment: Inhibition of human TrkB (455 to end residues) assessed as residual activity at 1 uM using poly(Glu, Tyr) 4:1 as substrate measured after 40 mins in presence of [gamma33P]ATP by scintillation counting method relative to control
[10] = biological target: Muscle, skeletal receptor tyrosine-protein kinase (Homo sapiens) (UniProt O15146); experiment: Inhibition of recombinant human MUSK (530 to end residues) assessed as residual activity at 1 uM using myelin basic protein as substrate measured after 40 mins in presence of [gamma33P]ATP by scintillation counting method relative to control
[11] = tested on: Serine/threonine-protein kinase Sgk1 (Homo sapiens), O00141 [S422D]; experiment: Inhibition of recombinant human SGK S422D mutant (60 to end residues) assessed as residual activity at 1 uM using GRPRTSSFAEGKK as substrate measured after 40 mins in presence of [gamma33P]ATP by scintillation counting method relative to control
[12] = tested on: PI3-kinase p110-alpha/p85-alpha (Homo sapiens), P27986+P42336 [H1047R]; experiment: Inhibition of recombinant full-length human PI3K p110alpha H1047R mutant/p85alpha assessed as residual activity at 1 uM assessed as residual activity at 1 uM using phosphatidylinositol-4, 5-bisphosphate as substrate incubated for 40 mins in presence of [gamma33P]ATP by scintillation counting based radiometry assay relative to control; type: protein-complex assay
[13] = biological target: Epidermal growth factor receptor (Homo sapiens) (UniProt P00533); experiment: Inhibition of recombinant human EGFR (696 to end residues) assessed as residual activity at 1 uM using poly(Glu, Tyr) 4:1 as substrate at 40 mins in presence of [gamma-33ATP] by scintillation counting based radiometry assay relative to control
[14] = biological target: Serine/threonine-protein kinase pim-3 (Homo sapiens) (UniProt Q86V86); experiment: Inhibition of recombinant human Pim3 (2 to end residues) assessed as residual activity at 1 uM using RSRHSSYPAGT as substrate measured after 40 mins in presence of [gamma33P]ATP by scintillation counting method relative to control
[15] = biological target: CDK12/Cyclin K (Homo sapiens) (UniProt O75909+Q9NYV4); experiment: Inhibition of recombinant full length human CDK12/cyclinK assessed as residual activity at 1 uM using RSRSRSRSRSRSRSR as substrate incubated for 120 mins in presence of [gamma-33ATP] by scintillation counting based radiometry assay relative to control; type: protein-complex assay
Sequence of CDK12/Cyclin K (Homo sapiens) (O75909 whole entry, looked up): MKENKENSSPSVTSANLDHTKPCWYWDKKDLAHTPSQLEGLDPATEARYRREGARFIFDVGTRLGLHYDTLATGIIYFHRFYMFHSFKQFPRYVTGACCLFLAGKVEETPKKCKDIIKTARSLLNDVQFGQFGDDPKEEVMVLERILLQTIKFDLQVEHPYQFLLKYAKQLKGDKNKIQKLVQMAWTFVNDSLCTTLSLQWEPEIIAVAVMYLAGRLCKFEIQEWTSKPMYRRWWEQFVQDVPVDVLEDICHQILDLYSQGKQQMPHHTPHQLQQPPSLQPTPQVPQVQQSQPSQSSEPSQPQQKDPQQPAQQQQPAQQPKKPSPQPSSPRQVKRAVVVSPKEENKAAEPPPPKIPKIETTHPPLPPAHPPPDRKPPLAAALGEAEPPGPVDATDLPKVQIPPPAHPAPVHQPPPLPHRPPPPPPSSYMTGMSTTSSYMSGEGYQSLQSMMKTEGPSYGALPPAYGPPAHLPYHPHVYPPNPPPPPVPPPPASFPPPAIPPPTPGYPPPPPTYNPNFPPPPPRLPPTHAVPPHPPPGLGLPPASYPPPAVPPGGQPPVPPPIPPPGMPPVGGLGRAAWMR
Sequence of CDK12/Cyclin K (Homo sapiens) (Q9NYV4 whole entry, looked up): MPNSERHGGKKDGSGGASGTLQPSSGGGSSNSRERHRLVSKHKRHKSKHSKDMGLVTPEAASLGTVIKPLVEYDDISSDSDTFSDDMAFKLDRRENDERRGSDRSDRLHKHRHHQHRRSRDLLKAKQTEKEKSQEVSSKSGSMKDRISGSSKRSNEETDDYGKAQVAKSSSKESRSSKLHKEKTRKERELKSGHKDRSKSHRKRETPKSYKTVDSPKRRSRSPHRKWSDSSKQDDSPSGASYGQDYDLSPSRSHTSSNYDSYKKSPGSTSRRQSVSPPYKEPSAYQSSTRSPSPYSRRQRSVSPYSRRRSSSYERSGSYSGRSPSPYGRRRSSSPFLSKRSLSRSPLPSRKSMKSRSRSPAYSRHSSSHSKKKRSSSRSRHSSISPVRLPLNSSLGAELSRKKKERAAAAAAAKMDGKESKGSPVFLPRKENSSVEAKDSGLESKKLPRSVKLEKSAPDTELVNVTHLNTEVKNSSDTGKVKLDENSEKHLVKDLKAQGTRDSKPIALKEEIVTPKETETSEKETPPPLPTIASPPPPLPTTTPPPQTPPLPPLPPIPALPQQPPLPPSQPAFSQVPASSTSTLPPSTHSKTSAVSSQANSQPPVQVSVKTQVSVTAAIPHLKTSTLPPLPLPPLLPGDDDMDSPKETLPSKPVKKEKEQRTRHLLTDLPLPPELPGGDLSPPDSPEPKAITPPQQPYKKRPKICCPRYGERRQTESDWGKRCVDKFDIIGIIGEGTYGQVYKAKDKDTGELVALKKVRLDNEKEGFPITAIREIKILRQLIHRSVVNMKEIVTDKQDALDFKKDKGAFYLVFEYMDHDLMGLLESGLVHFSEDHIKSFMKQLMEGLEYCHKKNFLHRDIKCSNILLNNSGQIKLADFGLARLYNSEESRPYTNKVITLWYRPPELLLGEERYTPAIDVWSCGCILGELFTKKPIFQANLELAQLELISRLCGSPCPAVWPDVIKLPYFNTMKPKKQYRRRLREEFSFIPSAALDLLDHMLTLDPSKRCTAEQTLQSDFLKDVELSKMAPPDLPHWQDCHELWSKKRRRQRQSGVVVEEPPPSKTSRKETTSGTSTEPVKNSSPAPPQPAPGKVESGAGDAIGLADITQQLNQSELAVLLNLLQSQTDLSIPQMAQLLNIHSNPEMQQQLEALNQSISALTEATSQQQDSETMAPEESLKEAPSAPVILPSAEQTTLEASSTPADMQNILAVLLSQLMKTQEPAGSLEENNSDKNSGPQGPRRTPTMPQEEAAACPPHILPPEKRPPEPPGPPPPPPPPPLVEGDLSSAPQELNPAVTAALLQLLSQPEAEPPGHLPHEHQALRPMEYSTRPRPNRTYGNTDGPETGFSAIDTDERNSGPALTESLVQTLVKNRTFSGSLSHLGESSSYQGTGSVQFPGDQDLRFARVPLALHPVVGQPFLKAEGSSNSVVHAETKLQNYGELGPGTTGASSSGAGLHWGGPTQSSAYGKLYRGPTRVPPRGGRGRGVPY

[16] = biological target: Serine/threonine-protein kinase D2 (Homo sapiens) (UniProt Q9BZL6); experiment: Inhibition of recombinant full-length human PKD2 assessed as residual activity at 1 uM using KKLNRTLSVA as substrate measured after 40 mins in presence of [gamma33P]ATP by scintillation counting method relative to control
[17] = biological target: Inhibitor of nuclear factor kappa-B kinase subunit epsilon (Homo sapiens) (UniProt Q14164); experiment: Inhibition of full length human IKKepsilon assessed as residual activity at 1 uM using casein as substrate after 40 mins by [gamma-33ATP] radiometric assay relative to control
[18] = biological target: Death-associated protein kinase 2 (Homo sapiens) (UniProt Q9UIK4); experiment: Inhibition of recombinant full length human DAPK2 assessed as residual activity at 1 uM Calmodulin as substrate incubated 40 mins in presence of [gamma-33ATP] by scintillation counting based radiometry assay relative to control
Sequence of Death-associated protein kinase 2 (Homo sapiens) (Q9UIK4 whole entry, looked up): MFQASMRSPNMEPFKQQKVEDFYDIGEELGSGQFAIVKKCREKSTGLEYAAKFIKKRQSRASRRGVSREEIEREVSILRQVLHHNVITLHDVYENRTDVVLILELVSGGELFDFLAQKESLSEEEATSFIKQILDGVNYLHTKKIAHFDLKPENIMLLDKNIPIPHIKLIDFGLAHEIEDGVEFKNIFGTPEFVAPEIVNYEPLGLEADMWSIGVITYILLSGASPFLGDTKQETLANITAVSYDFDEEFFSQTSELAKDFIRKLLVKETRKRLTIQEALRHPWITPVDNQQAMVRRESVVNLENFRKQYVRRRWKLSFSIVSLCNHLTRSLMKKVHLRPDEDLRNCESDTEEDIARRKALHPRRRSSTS

[19] = biological target: Mitogen-activated protein kinase 10 (Homo sapiens) (UniProt P53779); experiment: Inhibition of human JNK3 assessed as residual activity at 1 uM using peptide as substrate after 40 mins by [gamma-33ATP] radiometric assay relative to control
[20] = biological target: Misshapen-like kinase 1 (Homo sapiens) (UniProt Q8N4C8); experiment: Inhibition of recombinant human MINK (1 to 310 residues) assessed as residual activity at 1 uM using myelin basic protein as substrate measured after 40 mins in presence of [gamma33P]ATP by scintillation counting method
[21] = biological target: Serine/threonine-protein kinase 4 (Homo sapiens) (UniProt Q13043); experiment: Inhibition of recombinant full-length human MST1 assessed as residual activity at 1 uM using KKSRGDYMTMQIG as substrate measured after 40 mins in presence of [gamma33P]ATP by scintillation counting method relative to control
[22] = tested on: Tyrosine-protein kinase BTK (Homo sapiens), Q06187 [R28H]; experiment: Inhibition of recombinant full length human BTK R28H mutant assessed as residual activity at 1 uM using LSNLYHQGKFLQTFCGSPLYRRR as substrate incubated for 40 mins in presence of [gamma-33ATP] by scintillation counting based radiometry assay relative to control
Sequence of Tyrosine-protein kinase BTK (Homo sapiens), Q06187 [R28H] (Q06187 whole entry R28H): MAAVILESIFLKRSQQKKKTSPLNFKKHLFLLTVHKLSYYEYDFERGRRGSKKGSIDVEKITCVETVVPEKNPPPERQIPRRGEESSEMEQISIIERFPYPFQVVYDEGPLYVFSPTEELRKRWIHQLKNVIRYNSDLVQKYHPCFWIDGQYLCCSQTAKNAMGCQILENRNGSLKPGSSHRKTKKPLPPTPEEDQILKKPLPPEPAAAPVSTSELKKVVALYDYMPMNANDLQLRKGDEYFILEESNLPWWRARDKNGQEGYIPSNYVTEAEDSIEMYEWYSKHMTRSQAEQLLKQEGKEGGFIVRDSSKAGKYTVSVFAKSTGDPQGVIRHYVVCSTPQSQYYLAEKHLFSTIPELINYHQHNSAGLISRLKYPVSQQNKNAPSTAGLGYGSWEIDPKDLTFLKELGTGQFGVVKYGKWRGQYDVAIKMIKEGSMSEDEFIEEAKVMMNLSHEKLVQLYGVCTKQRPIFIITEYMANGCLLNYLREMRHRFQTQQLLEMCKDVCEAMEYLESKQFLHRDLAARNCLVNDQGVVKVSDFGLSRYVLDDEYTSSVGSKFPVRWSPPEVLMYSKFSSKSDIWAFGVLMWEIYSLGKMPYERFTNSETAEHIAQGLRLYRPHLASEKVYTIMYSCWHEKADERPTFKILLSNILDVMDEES

Structure (SMILES) | Activity [1] [%] | Activity [2] [%] | Activity [3] [%] | Activity [4] [%] | Activity [5] [%] | Activity [6] [%] | Activity [7] [%] | Activity [8] [%] | Activity [9] [%] | Activity [10] [%] | Activity [11] [%] | Activity [12] [%] | Activity [13] [%] | Activity [14] [%] | Activity [15] [%] | Activity [16] [%] | Activity [17] [%] | Activity [18] [%] | Activity [19] [%] | Activity [20] [%] | further results
C=CCOC(=O)c1cc(-c2ccc(/C=C3/NC(=S)NC3=O)o2)ccc1Cl | 98 | 121 | 106 | 98 | 104 | 98 | 111 | 87 | 92 | 96 | 91 | 94 | 106 | 33 | 96 | 99 | 98 | 86 | 100 | 92 | Activity [21]: 103%; Activity [22]: 101%
N=C1NC(=O)/C(=C\c2ccc(-c3cccc([N+](=O)[O-])c3)o2)S1 | 103 | 78 | 76 | 99 | 100 | 97 | 107 | 96 | 98 | 114 | 98 | 100 | 91 | 21 | 98 | 103 | 100 | 83 | 112 | 85 | Activity [21]: 98%; Activity [22]: 94%
